Data as given in US20060063143A1, “Immortalized hypothalamic neuronal cell lines” (priority 2002, published 2006).

Assays:
Type in all cases: cell-based, mouse
NPY-17 (N-38) cells = experiment: Calcium imaging (Fura2): intracellular calcium response to depolarization by KCl; details: KCl 60 mM, NPY-17 cells
Description: FIG. 15 illustrates the neurosecretory response of NPY-17 (N 38) cells. The effect of the addition of KCl (60 mM) on intracellular calcium levels ([Ca2+]i) for the cells pictured is shown. Images of cells shown in the two panels on the right were obtained as per Example 5. Shown is a representative experiment from 6 experiments, n=116 cells in total (FIG. 15, left panel);
Since many of the peptides and enzyme present in the individual cell lines are secretory products, one representative cell line, N-38 (Also known as NPY-17), was studied for its response to depolarization by addition of 60 mM KCl. […] NPY-17 neurons were plated in 60 mm plates. Fura-2/AM loaded GT1-7 neurons were continuously monitored by 340/380 ratiometric digital imaging pre (top right panel) and post (lower right panel) stimulation. […]
Ca2+ imaging experiments were performed with Fura2 (Molecular Probes) using an Olympus IX70 inverted epifluorescence microscope, an Ultrapix camera with an EEV CCD37-10-1-019 chip, a monochromator, and a PC computer with Merlin imaging software (Life Science Resources) using standard Fura2 optics and imaging techniques. […] Intracellular free Ca2+ ([Ca2+]i) concentrations calculated using the Grynkiewicz equation, [Ca2+]i=Kd×□×(R−Rmin)/(Rmax−R) (52).

N38 hypothalmic cells = experiment: Microarray (Affymetrix oligonucleotide arrays) of TCAP-1 treated cells, genes regulated at 16 hours
Description: RNAs isolated from treated and untreated cells were analyzed on oligonucleotide arrays representing 12,884 mouse genes (Affymetrix, http://www.affymetrix.com). Standard filtering (p<0.005) and hierarchical clustering algorithm (average linage method: GeneSpring software—Silicon Genetics) identified significant changes in the expression of 4, 841/12,885 genes with 166 genes showing 1.5 fold down-regulation and 35 genes up-regulation in the TCAP-1-treated cells compared to the untreated cells. […] A G-protein coupled receptor-related signal transduction pathway is indicated by the regulation of genes, CREM, AKAP8, AKAP95 and PDE6A. […] The upregulation in inducible nitric oxide (INOS), a intracellular voltage-gated chloride channel (CLCN3) and the serotonin transporter (SLC6A4) may reflect the down stream actions of cAMP-mediated signal cascade and indicates the potential for TCAP to be involved in neuronal signaling systems. A role in interneuron communication by TCAP is also indicated by the modulation of genes associated with the regulation of vesicle trafficking. Thus, the TCAP responsive cell lines can be used to screen for modulators of neuronal function that affect growth, differentiation and communication.
The change in expression levels is indicated relative to the untreated control cell for the same time period of 16 hours. Values>1.5 fold or <0.70 fold were considered significant.

NPY-17 cells = experiment: Leptin responsiveness: proteomic (mass spectrometry) analysis of nuclear extracts; details: 10^-7 M leptin, 20 hours, NPY-17 nuclear extracts, preliminary, +/- protein status
Description: The NPY-17 cells also express leptin receptors and have been studied for leptin responsiveness using both gene array analysis and proteomic analysis. NPY-17 cells were treated with 10^-7 M leptin (recombinant mouse, Bachem Scientific) for 20 hours. Cells were washed with PBS and harvested through centrifugation. Nuclear extracts were prepared and exposed to mass spectrometry analysis. […] The analysis is not considered quantitative, but initially represents a +/− protein status (i.e. the protein is either present or absent in the control or leptin-treated sample).

[1] = 1 nM TCAP-1, N38 cells, 16 hours post-treatment
[2] = 1 nM TCAP-1, N38 cells, treated vs untreated

## [Cl-].[K+] [KCl]
NPY-17 (N-38) cells
  calcium mobilization: significant increase
NPY-17 (N-38) cells; representative graph
  [Ca2+]i peak value: ~450 nM

## TCAP-1: teneurin C-terminal-associated peptide 1, SEQ ID NO 5 plus amidation signal GRR at C-terminus (QQLLGTGRVQGYDGYFVLSVEQYLELSDSANNIHFMRQSEI; C-terminal GRR amidation signal; Mouse TCAP1)
N38 hypothalmic cells; 1 nM TCAP-1, 16 hours, relative to untreated control, cluster Growth/Differentiation, probe 92325
  Fold change PTK7 (Receptor protein tyrosine kinase): 1.53 fold
N38 hypothalmic cells; 1 nM TCAP-1, 16 hours, relative to untreated control, cluster Growth/Differentiation, probe 94192
  Fold change GDAP10 (Ganglioside induced diff. protein 10): 1.62 fold
N38 hypothalmic cells; 1 nM TCAP-1, 16 hours, relative to untreated control, cluster Growth/Differentiation, probe 94724
  Fold change MMP10 (Matrix metalloproteinase 10): 0.59 fold
N38 hypothalmic cells; 1 nM TCAP-1, 16 hours, relative to untreated control, cluster Growth/Differentiation, probe 97353
  Fold change DLP1/2 (DAB2 interacting protein): 0.68 fold
N38 hypothalmic cells; 1 nM TCAP-1, 16 hours, relative to untreated control, cluster Growth/Differentiation, probe 98466
  Fold change P204 (Interferon activatable protein): 1.85 fold
N38 hypothalmic cells; 1 nM TCAP-1, 16 hours, relative to untreated control, cluster Growth/Differentiation, probe 98530
  Fold change GAS5 (Growth arrest specific transcript): 0.46 fold
N38 hypothalmic cells; 1 nM TCAP-1, 16 hours, relative to untreated control, cluster Growth/Differentiation, probe 99924
  Fold change INI1B (Integrase interacting protein 1B): 0.48 fold
N38 hypothalmic cells; 1 nM TCAP-1, 16 hours, relative to untreated control, cluster Growth/Differentiation, probe 100484
  Fold change MMP1 (Matrix metalloproteinase 1): 0.55 fold
N38 hypothalmic cells; 1 nM TCAP-1, 16 hours, relative to untreated control, cluster Growth/Differentiation, probe 102382
  Fold change MOP3 (Circadian rhythm regulator): 1.57 fold
N38 hypothalmic cells; 1 nM TCAP-1, 16 hours, relative to untreated control, cluster Growth/Differentiation, probe 102627
  Fold change CRD-BP (CRD-binding protein): 0.59 fold
N38 hypothalmic cells; 1 nM TCAP-1, 16 hours, relative to untreated control, cluster Growth/Differentiation, probe 102921
  Fold change CD95 (Fas antigen): 0.61 fold
N38 hypothalmic cells; 1 nM TCAP-1, 16 hours, relative to untreated control, cluster Growth/Differentiation, probe 103202
  Fold change GBP3 (Guanylate binding protein): 0.63 fold
N38 hypothalmic cells; 1 nM TCAP-1, 16 hours, relative to untreated control, cluster Growth/Differentiation, probe 103441
  Fold change CAI1 (Casein kinase II): 0.61 fold
N38 hypothalmic cells; 1 nM TCAP-1, 16 hours, relative to untreated control, cluster Growth/Differentiation, probe 160298
  Fold change SSG1 (Steroid sensitive gene 1): 0.62 fold
N38 hypothalmic cells; 1 nM TCAP-1, 16 hours, relative to untreated control, cluster Growth/Differentiation, probe 160373
  Fold change SDPR (Serum deprivation response protein): 0.57 fold
N38 hypothalmic cells; 1 nM TCAP-1, 16 hours, relative to untreated control, cluster Growth/Differentiation, probe 160591
  Fold change ST7 (Suppressor of tumourigenicity): 1.97 fold
N38 hypothalmic cells; 1 nM TCAP-1, 16 hours, relative to untreated control, cluster Growth/Differentiation, probe 160802
  Fold change PPAN (Peter Pan homologue): 0.62 fold
N38 hypothalmic cells; 1 nM TCAP-1, 16 hours, relative to untreated control, cluster Growth/Differentiation, probe 161173
  Fold change P202 (202 interferon activatable protein): 0.61 fold
N38 hypothalmic cells; 1 nM TCAP-1, 16 hours, relative to untreated control, cluster Growth/Differentiation, probe 161931
  Fold change MKI67 (Cell cycle protein regulator): 1.70 fold
N38 hypothalmic cells; 1 nM TCAP-1, 16 hours, relative to untreated control, cluster Processing, probe 93492
  Fold change CLM2-B (Cytohesin-2): 0.63 fold
N38 hypothalmic cells; 1 nM TCAP-1, 16 hours, relative to untreated control, cluster Processing, probe 95156
  Fold change ARF1 (ADP ribosylation factor 1): 0.63 fold
N38 hypothalmic cells; 1 nM TCAP-1, 16 hours, relative to untreated control, cluster Processing, probe 99675
  Fold change YIPID (Rab-mediated membrane transport): 1.88 fold
N38 hypothalmic cells; 1 nM TCAP-1, 16 hours, relative to untreated control, cluster Processing, probe 100074
  Fold change GP25L2 (gp25L brings cargo forward from ER): 1.53 fold
N38 hypothalmic cells; 1 nM TCAP-1, 16 hours, relative to untreated control, cluster Processing, probe 104561
  Fold change AP4S1 (Adaptor related protein complex): 1.52 fold
N38 hypothalmic cells; 1 nM TCAP-1, 16 hours, relative to untreated control, cluster Processing, probe 160149
  Fold change RAB10 (Ras oncogene homologue): 1.62 fold
N38 hypothalmic cells; 1 nM TCAP-1, 16 hours, relative to untreated control, cluster Signalling/Communication, probe 92631
  Fold change CAMIII (Calmodulin III): 0.53 fold
N38 hypothalmic cells; 1 nM TCAP-1, 16 hours, relative to untreated control, cluster Signalling/Communication, probe 92754
  Fold change FNBX (Ferredoxin-NADP reductase): 1.61 fold
N38 hypothalmic cells; 1 nM TCAP-1, 16 hours, relative to untreated control, cluster Signalling/Communication, probe 92767
  Fold change ALK3 (Bone morphogenic protein receptor): 0.60 fold
N38 hypothalmic cells; 1 nM TCAP-1, 16 hours, relative to untreated control, cluster Signalling/Communication, probe 93456
  Fold change BMP4 (Bone morphogenic protein-4): 0.52 fold
N38 hypothalmic cells; 1 nM TCAP-1, 16 hours, relative to untreated control, cluster Signalling/Communication, probe 93914
  Fold change IL1R (Interleukin 1 receptor): 0.60 fold
N38 hypothalmic cells; 1 nM TCAP-1, 16 hours, relative to untreated control, cluster Signalling/Communication, probe 94465
  Fold change CLCN3 (Chloride channel protein 3): 1.66 fold
N38 hypothalmic cells; 1 nM TCAP-1, 16 hours, relative to untreated control, cluster Signalling/Communication, probe 95001
  Fold change AKAP95 (A kinase anchor protein 95): 0.60 fold
N38 hypothalmic cells; 1 nM TCAP-1, 16 hours, relative to untreated control, cluster Signalling/Communication, probe 98818
  Fold change GR (Glucocorticoid receptor): 0.66 fold
N38 hypothalmic cells; 1 nM TCAP-1, 16 hours, relative to untreated control, cluster Signalling/Communication, probe 100533
  Fold change CREMβ1 (cAMP-responsive element modulator): 1.61 fold
N38 hypothalmic cells; 1 nM TCAP-1, 16 hours, relative to untreated control, cluster Signalling/Communication, probe 100696
  Fold change PDE6A (cGMP Phosphodiesterase α): 1.68 fold
N38 hypothalmic cells; 1 nM TCAP-1, 16 hours, relative to untreated control, cluster Signalling/Communication, probe 101834
  Fold change ERK1 (Mitogen activated protein kinase): 0.64 fold
N38 hypothalmic cells; 1 nM TCAP-1, 16 hours, relative to untreated control, cluster Signalling/Communication, probe 104270
  Fold change BARK1 (β adrenorgic receptor kinase 1): 0.61 fold
N38 hypothalmic cells; 1 nM TCAP-1, 16 hours, relative to untreated control, cluster Signalling/Communication, probe 104420
  Fold change INOS (Inducible nitric oxide synthetase): 1.50 fold
N38 hypothalmic cells; 1 nM TCAP-1, 16 hours, relative to untreated control, cluster Signalling/Communication, probe 160976
  Fold change PCDHγ (protocadherin γ): 0.42 fold
N38 hypothalmic cells; 1 nM TCAP-1, 16 hours, relative to untreated control, cluster Signalling/Communication, probe 161019
  Fold change TTF-1IP (TTF-1 interacting peptide): 0.50 fold
N38 hypothalmic cells; 1 nM TCAP-1, 16 hours, relative to untreated control, cluster Signalling/Communication, probe 161088
  Fold change AKAP8 (A kinase anchor protein 8): 1.58 fold
N38 hypothalmic cells; 1 nM TCAP-1, 16 hours, relative to untreated control, cluster Signalling/Communication, probe 161695
  Fold change SLC6A4 (Serotonin transporter): 1.53 fold
N38 hypothalmic cells; [1]
  AKAP8 gene expression: upregulation
  AKAP95 gene expression: Downregulation
  CD95 gene expression: significant decrease
  EFK1 gene expression: down regulated
  GAS5 gene expression: significant decrease
  GDAP10 gene expression: upregulated
  MK167 gene expression: upregulated
  MOP3 gene expression: upregulated
  RGL gene expression: down regulated
  SDPR gene expression: significant decrease
  inducible nitric oxide (INOS) gene expression: upregulation
  intracellular voltage-gated chloride channel (CLCN3) gene expression: upregulation
  serotonin transporter (SLC6A4) gene expression: upregulation
N38 hypothalmic cells; [2]
  genes showing 1.5 fold down-regulation: 166
  genes showing up-regulation: 35

B1: leptin: leptin (recombinant mouse, Bachem Scientific) (protein, UniProt P41160 22-167, looked up)
Leptin: VPIQKVQDDTKTLIKTIVTRINDISHTQSVSAKQRVTGLDFIPGLHPILSLSKMDQTLAVYQQVLTSLPSQNVLQIANDLENLRDLLHLLAFSKSCSLPQTSGLQKPESLDGVLEASLYSTEVVALSRLQGSLQDILQQLDVSPEC
NPY-17 cells
  proteins altered by leptin treatment: approximately 250
